Assay [1] can be described thus: Cytotoxicity against human […] cells assessed as growth inhibition measured by SRB assay. The assay is classed as cell-based.
Assay [2] relates to A549. As to the kind of experiment: Cytotoxicity against human A549 cells assessed as growth inhibition measured by SRB assay. Type of assay: functional, cell-based.
For assay [3], the system named is MDA-MB-231. As to the kind of experiment: Cytotoxicity against human MDA-MB-231 cells assessed as growth inhibition measured by SRB assay. The assay is classed as functional, cell-based. (Sulforhodamine B stains cellular protein and so reports cell mass.)
The subject of assay [4] is FaDu. Put plainly: Cytotoxicity against human FaDu cells assessed as growth inhibition measured by SRB assay. Type of assay: functional, cell-based.
Assay [5] concerns HT-29. As to the kind of experiment: Cytotoxicity against human HT-29 cells assessed as growth inhibition measured by SRB assay. The assay is classed as functional, cell-based.
The test system of assay [6] is SH-SY5Y. As to the kind of experiment: Cytotoxicity against human SH-SY5Y cells assessed as growth inhibition measured by SRB assay. The assay is classed as functional, cell-based.
The nature of assay [7]: Cytotoxicity against human KKUM213 cells assessed as growth inhibition measured by SRB assay. The assay is classed as functional, cell-based. The settings on record: KKU-M213.

The structures appear in SMILES notation.

As a reminder, the IC50 is the concentration needed to halve the response being measured.

With `COC(=O)CC/C(C)=C/Cc1c(OC)c(C)c2c(c1OCC#CCN(CC#CCOc1c(C/C=C(\C)CCC(=O)OC)c(OC)c(C)c3c1C(=O)OC3)CCC(C)C)C(=O)OC2`, the concentration for half-maximal inhibition (IC50) in assay [1] is 48.2 µM; in assay [2], 27.5 µM; in assay [3] it was 48.6 µM; in assay [4], 46.7 µM; in assay [5] it was greater than 50 µM; in assay [6] it was 20.6 µM. For the same molecule, the IC50 in assay [7] is 48.3 µM.
On to `Cc1c2ccncc2c(C)c2c1[nH]c1ccccc12` [ELLIPTECINE], for which the IC50 in assay [1] was found to be 1.89 µM; in assay [2], 1.16 µM; in assay [3], 2.03 µM; in assay [4] it was 1.85 µM; in assay [5] it was 1.95 µM; in assay [6] it was 2.13 µM. Also, in assay [7], the IC50 came to 1.97 µM.
For the molecule `COc1c(C)c2c(c(O)c1C/C=C(\C)CCC(=O)O)C(=O)OC2` [MYCOPHENOLIC ACID], the half-inhibitory concentration (IC50) turned out to be 7.19 µM in assay [1]; 1.21 µM in assay [2]; 7.83 µM in assay [3]; 6.72 µM in assay [4]; 6.48 µM in assay [5]; 0.56 µM in assay [6]. For the same molecule, the IC50 in assay [7] is 7.16 µM.

The values are drawn from ChEMBL document CHEMBL4819142, “Synthesis of propargylamine mycophenolate analogues and their selective cytotoxic activity towards neuroblastoma SH-SY5Y cell line” (Bioorg Med Chem Lett, 2021).
